Substitutions are numbered along the chain they refer to. Entries after “also recorded” stand apart in the source; their conditions may differ. Where two headings read alike, the source gives them in different places. No end group written: not given here.

In one assay the test system is His-TRAF6_310-522. Nature of the assay: Peptide array, TRAF6 binding. To be noted: for T6 interaction (peptide array): immobilized peptide, 10 µg per mL His-TRAF6, 4 h RT, two independent experiments; for TRAF6 binding to immobilized peptide (in words): peptide array. Set-up: species or system human; key to T6 interaction (peptide array): +: Interaction with TRAF6 or TRAF2 isindicated according to the results shown in Figure 1c.; -: Interaction with TRAF6 or TRAF2 isindicated according to the results shown in Figure 1c. As for the experimental part:
(§1) Arrays were synthesized on a Multipep Synthesizer (Intavis Bioanalytical Instruments) on derivatized cellulose (amino-Peg500 UC540, acid-hardened, loading 400 nmol per cm^2, Intavis). After peptides were spot-assembled and deprotected, membranes were washed extensively with dichloromethane, N-methylpyrrolidone, and ethanol and stored at −20 °C until use. Prior to use, filters were rinsed for 10 sec in ethanol and washed three times for ten min each at 50 rpm in PBST (PBS, 0.1% Tween-20) under gentle rocking. Filters were blocked by incubation in PBST supplemented with 5% (w/v) nonfat dry milk powder for 2 h at RT and three washing steps in PBST for 20 min. Subsequently, nonspecific antibody binding sites were blocked by incubation of the filters at 4 °C overnight with either TRAF6 (goat α-TRAF6 C-20 #sc-6223, Santa Cruz Biotech.) or TRAF2 primary antibody (rabbit α-TRAF2 C-20, #sc-876, Santa Cruz Biotech.), diluted at 1:1000 in PBS supplemented with 5% (w/v) nonfat dry milk powder. Following three washing steps with PBS, the filters were incubated with horseradish peroxidase-conjugated α-goat IgG (Dianova, #305-035-003) or α-rabbit IgG (Cell signalling Technology, #7074S) secondary antibody, diluted 1:5000 in PBS supplemented with 5% (w/v) nonfat dry milk powder. Filters were developed with ECL and no nonspecific antibody binding was detected. To detect TRAF6 or TRAF2 binding to the immobilized peptides, filters were washed with PBST and subsequently incubated with 10 µg per mL recombinant purified His-TRAF6 or His-TRAF2 protein in PBST supplemented with 5% (w/v) nonfat dry milk powder for 4 h at RT. After washing the filters in PBST, TRAF protein binding was analyzed by incubation of the filters with TRAF6 (C-20, #sc-6223, Santa Cruz Biotech., used at 1:1000) or TRAF2 (C-20, #sc-876, Santa Cruz Biotech., used at 1:1000) primary and the respective Horseradish peroxidase-coupled secondary antibodies (Dianova, #305-035-003, used at 1:500, or Cell Signalling Technology, #7074, used at 1:5000). ECL signals were captured on X-ray films (Agfa Healthcare).

The subject of another assay is His-TRAF2_311-501. Nature of the assay: Peptide array, TRAF2 binding. Set-up: key to T2 interaction (peptide array): +: Interaction with TRAF6 or TRAF2 isindicated according to the results shown in Figure 1c.; -: Interaction with TRAF6 or TRAF2 isindicated according to the results shown in Figure 1c. To be noted: for T2 interaction (peptide array): immobilized peptide, 10 µg per mL His-TRAF2, 4 h RT, two independent experiments. As for the experimental part:
as §1

Assay [1] concerns His-TRAF6_310-522 (TRAF6). The assay can be described thus: AlphaScreen PPI assay, TRAF6 binding to GST-LMP1/CD40/RANK proteins. On the set-up: species or system human. To be noted: for Bmax (best-fit value): AlphaScreen signal. As for the experimental part:
AlphaScreen experiments were performed in 96- or 384-well plates (Perkin Elmer, OptiPlate). In both assay formats, His-TRAF and GST-LMP1, GST-CD40, or GST-RANK proteins were incubated together in 40 µL of PBS (protein concentrations were calculated to the final reaction volume of 60 µL) supplemented with 0.5% BSA (Sigma, #A7030) and 0.1% Tween-20 (AppliChem, #A4974), for 1 h at room temperature (RT). If not indicated otherwise, standard protein concentrations were 300 nM for His-TRAF proteins and 100 nM for GST-LMP1 proteins. Ni-NTA-acceptor (Perkin Elmer, #6760619 C) and GST-acceptor (Perkin Elmer, # 6765300) beads were added each to a final concentration of 1–4 µg per mL in a final reaction volume of 60 µL and incubated for 1 h at RT in the dark. AlphaScreen PPI signals were measured in a CLARIOstar reader (BMG Labtech GmbH).
All statistical analyses were performed with Prism v10.1.0 software (GraphPad Software Inc.). Two-way ANOVA was performed on experiments with two factors of variance (Figs. 1e and 3a). Ordinary one-way ANOVA with multiple comparisons was performed on experiments with one factor of variance (Figs. 2a–e, 3c, 6b, 7b, 8c and Supplementary Fig. 2a). For KD determination, the data from each experiment were cleaned for the hook effect (signal depletion by oversaturation of the beads) and analyzed using the equation one site-specific binding with hill slope (Figs. 1f–i, and Supplementary Fig. 1f). The IC50 was determined using the log(inhibitor) vs. response – variable slope (four parameters) equation (Fig. 8b and d). A paired t-test was used for matched samples (Fig. 8b) and an unpaired t-test was used for unpaired samples (Figs. 7c and 8e).

[2] abbreviates: source data, One site -- Specific binding with Hill slope.
The mark [3] stands for this setting: source data, One site -- Specific binding with Hill slope, concentrations c H-T6 in nM, read-out: Kd (best-fit value).

As to “KAEAQAINFPDDLPGSNTAAPVQETLHGCQ [peptide 3, CD40 230-259, A231xAxA]”, in the assay on His-TRAF6_310-522, the “T6 interaction (peptide array)” value is “-”. Besides, the “T2 interaction (peptide array)” value in the assay with His-TRAF2_311-501 is “+”.
The matching figures for “KQEPQEINFPDDLPGSNTAAPVQETLHGCQ [peptide 1, CD40 amino acids 230-259]”: “+” and “+”.
Take “PHLPTLLLGSSGSGGDDDDPHGPVQLSYYD [peptide 11, LMP1 357-386 (30mer)]”: in the assay with His-TRAF6_310-522, the “T6 interaction (peptide array)” value was “+” and the “TRAF6 binding to immobilized peptide (in words)” value is “efficiently captured”. In addition, the “T2 interaction (peptide array)” value in the assay with His-TRAF2_311-501 is given as “-”.
Consider “RANK E346Q (GGGPYAQGEDARMLSLVSKTEIEEDSFRQMPTQDEYMDRPSQ; also: GST fusion left off, end not given here)”, for which, in assay [1] (setting [2]), the “h (Hill slope, best-fit value)” value came to 1.998 and the “Bmax (best-fit value)” value is on record as 1302008.
For the molecule “… GDDDDPHGPVQLSYYD [peptide 8, LMP1 371-386 (16mer)]”, in the assay with His-TRAF6_310-522, the “T6 interaction (peptide array)” value is reported as “+” and the “TRAF6 binding to immobilized peptide (in words)” value was “efficiently captured”. The “T2 interaction (peptide array)” value in the assay with His-TRAF2_311-501 is recorded as “-”.
As for “RANK: recombinant GST-RANK314-355 (GGGPYAQGEDARMLSLVSKTEIEEDSFRQMPTEDEYMDRPSQ; also: GST fusion left off, end not given here)”, in assay [1] (setting [2]), the “h (Hill slope, best-fit value)” value was determined as 2.024 and the “Bmax (best-fit value)” value worked out at 1370733. For the same molecule, in assay [1] (setting [3]), the dissociation constant Kd (as a rule, the constant that tells how readily two partners part at equilibrium) came to 7.74 nM.
With “DDSLPHPQQATDDSGHESDSNSNEGRHHLL [peptide 6, LMP1 198-227]”, in the assay with His-TRAF6_310-522, the “T6 interaction (peptide array)” value was “-” and the “TRAF6 binding to immobilized peptide (in words)” value was “did not bind”. For the same molecule, in the assay on His-TRAF2_311-501, the “T2 interaction (peptide array)” value is “+”. Moreover, the “TRAF2 binding to immobilized peptide (in words)” value with His-TRAF2_311-501 (peptide array) was “bound”.
For the molecule “GSNTAAAVAEALHGCQPVTQEDGKESRISV [peptide 5, CD40 244-273, A250xAxA]”, the “T6 interaction (peptide array)” value in the assay on His-TRAF6_310-522 is “-”. For the same molecule, the “T2 interaction (peptide array)” value in the assay with His-TRAF2_311-501 is “-”.
In the case of “GSNTAAPVQETLHGCQPVTQEDGKESRISV [peptide 4, CD40 244-273]”, the “T6 interaction (peptide array)” value in the assay with His-TRAF6_310-522 was “-”. The “T2 interaction (peptide array)” value in the assay with His-TRAF2_311-501 is “+”.
Taken in the same sequence, the figures for “2: CD40 230-259, A250xAxA (KQEPQEINFPDDLPGSNTAAAVAEALHGCQ; UniProt P25942 230-259, looked up, variant P250A Q252A T254A) [compound 2]” were “+” and “-”.
Regarding “PHLPTLLLGSSGSGGDDDDPHGAVALAYYD [peptide 12, LMP1 357-386, A379xAxA]”, in the assay with His-TRAF6_310-522, the “T6 interaction (peptide array)” value is reported as “-” and the “TRAF6 binding to immobilized peptide (in words)” value is listed as “abolished the direct TRAF6 binding”. Besides, the “T2 interaction (peptide array)” value in the assay on His-TRAF2_311-501 is listed as “-”.
Consider “… GDDDDPHGPVQLSAAD [peptide 9, LMP1 371-386, A384A385]”, for which, in the assay with His-TRAF6_310-522, the “T6 interaction (peptide array)” value is recorded as “-” and the “TRAF6 binding to immobilized peptide (in words)” value is on record as “abolished the direct TRAF6 binding”. Further, the “T2 interaction (peptide array)” value with His-TRAF2_311-501 is listed as “-”.

B1: CD40: recombinant GST-CD40_216-277 (protein)
chain: KKVAKKPTNKAPHPKQEPQEINFPDDLPGSNTAAPVQETLHGCQPVTQEDGKESRISVQERQ
modifications: left off: GST, end not stated, kept
With B1, in assay [1] (setting [2]), the “h (Hill slope, best-fit value)” value is 2.083 and the “Bmax (best-fit value)” value stood at 1455821.

B2: CD40 E235Q (protein)
chain: B1 chain with E20Q
modifications: left off: GST, end not stated, kept
As to B2, in assay [1] (setting [2]), the “h (Hill slope, best-fit value)” value came out at 1.924 and the “Bmax (best-fit value)” value is 1053663.

B3: LMP1 Q381E (protein)
chain: LIWMYYHGQRHSDEHHHDDSLPHPQQATDDSGHESDSNSNEGRHHLLVSGAGDGPPLCSQNLGAPGGGPDNGPQDPDNTDDNGPQDPDNTDDNGPHDPLPQDPDNTDDNGPQDPDNTDDNGPHDPLPHSPSDSAGNDGGPPQLTEEVENKGGDQGPPLMTDGGGGHSHDSGHGGGDPHLPTLLLGSSGSGGDDDDPHGPVELSYYD
modifications: left off: GST, end not stated, kept
For B3, the “fold enhanced affinity for TRAF6” value in assay [1] (compared with LMP1 wild-type) is on record as 5.0 -fold. For the same molecule, in assay [1] (setting [2]), the “h (Hill slope, best-fit value)” value worked out at 1.772 and the “Bmax (best-fit value)” value is given as 1507585.

B4: LMP1 Y384F (protein)
chain: B3 chain with E201Q, Y204F
modifications: left off: GST, end not stated, kept
As for B4, the “TRAF6 binding/affinity (in words)” value in assay [1] (AlphaScreen PPI) is reported as “improved the affinity of LMP1 for TRAF6; also recorded: higher affinity of Y384F to TRAF6 as compared to wild-type LMP1”. In assay [1] (AlphaScreen PPI, His-TRAF6_310-522 titrated with GST-receptor protein, PBS 0.5% BSA 0.1% Tween-20, 1 h RT, one site-specific binding with hill slope, mean ± SD, n = 3 (CD40), 4 (LMP1), 6 (RANK), read-out: KD of TRAF6 interaction), the Kd worked out at 21.7 ± 6.6 nM. Moreover, in assay [1] (setting [2]), the “h (Hill slope, best-fit value)” value was found to be 1.321 and the “Bmax (best-fit value)” value turned out to be 1186145. Also, in assay [1] (setting [3]), the Kd is 21.7 nM.

B5: LMP1 Y384D (protein)
chain: B3 chain with E201Q, Y204D
modifications: left off: GST, end not stated, kept
For the molecule B5, in assay [1] (AlphaScreen PPI), the “TRAF6 binding/affinity (in words)” value is given as “TRAF6 binding was not abolished”. The “reduction of affinity to TRAF6 (factor)” value in assay [1] (compared with the respective wild-type receptor) is on record as 1.8. In addition, the dissociation constant (Kd) in assay [1] (one site, specific binding with Hill slope, c H-T6 in nM, hook effect data excluded, 95% CI A204xAxA 52,94 to 93,02, Y384D 72,59 to 190,2, read-out: Kd) amounted to 131 nM. In addition, the “h (Hill slope)” value in assay [1] (one site, specific binding with Hill slope, hook effect data excluded, Std. Error A204xAxA 0.2126, Y384D 0.1712) is given as 1.019. Moreover, the Bmax in assay [1] (one site, specific binding with Hill slope, hook effect data excluded, Std. Error A204xAxA 67298, Y384D 78225) was 1231417.
